In ChEMBL document CHEMBL4342471, “Discovery of Thieno[2,3-d]pyrimidine-Based Hydroxamic Acid Derivatives as Bromodomain-Containing Protein 4/Histone Deacetylase Dual Inhibitors Induce Autophagic Cell Death in Colorectal Carcinoma Cells” (J Med Chem, 2020):

Key:
HCT-116 = assay: Antiproliferative activity against human HCT116 cells assessed as reduction in cell viability measured after 24 to 48 hrs by MTT assay; format: functional, cell-based
[1] = target: T1, Protein deacetylase HDAC6 (Homo sapiens, UniProt Q9UBN7); assay: Inhibition of HDAC6 (unknown origin) using biotinylated histone H3 KAc peptide (1 to 21 residues) as substrate by HTRF assay
T1 sequence (Q9UBN7 whole entry): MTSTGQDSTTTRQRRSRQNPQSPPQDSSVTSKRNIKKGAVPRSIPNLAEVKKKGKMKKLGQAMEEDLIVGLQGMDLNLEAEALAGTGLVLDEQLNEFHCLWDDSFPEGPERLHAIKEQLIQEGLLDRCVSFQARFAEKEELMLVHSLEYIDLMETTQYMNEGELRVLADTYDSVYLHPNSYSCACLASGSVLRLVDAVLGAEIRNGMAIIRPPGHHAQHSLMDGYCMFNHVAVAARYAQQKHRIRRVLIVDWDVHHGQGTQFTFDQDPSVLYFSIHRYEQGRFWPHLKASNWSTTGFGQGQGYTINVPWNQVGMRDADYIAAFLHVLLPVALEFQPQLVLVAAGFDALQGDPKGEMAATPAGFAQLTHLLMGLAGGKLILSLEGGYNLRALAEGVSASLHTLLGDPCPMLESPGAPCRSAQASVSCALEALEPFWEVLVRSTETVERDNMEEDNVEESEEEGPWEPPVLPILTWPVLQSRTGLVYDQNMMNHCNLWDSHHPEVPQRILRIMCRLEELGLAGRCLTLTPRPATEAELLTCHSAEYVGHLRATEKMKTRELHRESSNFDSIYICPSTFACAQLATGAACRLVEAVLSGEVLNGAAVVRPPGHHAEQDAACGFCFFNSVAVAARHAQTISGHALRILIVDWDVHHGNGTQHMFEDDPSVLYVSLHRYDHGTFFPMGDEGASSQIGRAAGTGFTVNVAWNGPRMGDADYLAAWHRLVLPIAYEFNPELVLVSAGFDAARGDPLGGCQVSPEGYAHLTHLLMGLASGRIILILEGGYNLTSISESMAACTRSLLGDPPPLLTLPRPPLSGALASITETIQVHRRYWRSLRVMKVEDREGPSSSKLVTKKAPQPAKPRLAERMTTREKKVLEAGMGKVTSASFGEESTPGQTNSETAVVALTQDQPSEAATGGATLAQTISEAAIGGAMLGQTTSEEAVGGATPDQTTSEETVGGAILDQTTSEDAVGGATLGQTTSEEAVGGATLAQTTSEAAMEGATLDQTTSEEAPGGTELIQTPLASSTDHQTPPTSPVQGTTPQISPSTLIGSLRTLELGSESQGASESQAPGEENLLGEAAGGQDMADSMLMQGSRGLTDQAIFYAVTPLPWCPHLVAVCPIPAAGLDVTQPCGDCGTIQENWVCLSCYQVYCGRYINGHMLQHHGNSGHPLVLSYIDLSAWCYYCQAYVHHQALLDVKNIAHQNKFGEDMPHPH

Histone deacetylase 2 = Histone deacetylase 2 (Homo sapiens, UniProt Q92769)
Histone deacetylase 7 = target: T2, Histone deacetylase 7 (Homo sapiens, UniProt Q8WUI4); assay: Inhibition of HDAC7 (unknown origin) using biotinylated histone H3 KAc peptide (1 to 21 residues) as substrate by HTRF assay
T2 sequence (Q8WUI4 whole entry): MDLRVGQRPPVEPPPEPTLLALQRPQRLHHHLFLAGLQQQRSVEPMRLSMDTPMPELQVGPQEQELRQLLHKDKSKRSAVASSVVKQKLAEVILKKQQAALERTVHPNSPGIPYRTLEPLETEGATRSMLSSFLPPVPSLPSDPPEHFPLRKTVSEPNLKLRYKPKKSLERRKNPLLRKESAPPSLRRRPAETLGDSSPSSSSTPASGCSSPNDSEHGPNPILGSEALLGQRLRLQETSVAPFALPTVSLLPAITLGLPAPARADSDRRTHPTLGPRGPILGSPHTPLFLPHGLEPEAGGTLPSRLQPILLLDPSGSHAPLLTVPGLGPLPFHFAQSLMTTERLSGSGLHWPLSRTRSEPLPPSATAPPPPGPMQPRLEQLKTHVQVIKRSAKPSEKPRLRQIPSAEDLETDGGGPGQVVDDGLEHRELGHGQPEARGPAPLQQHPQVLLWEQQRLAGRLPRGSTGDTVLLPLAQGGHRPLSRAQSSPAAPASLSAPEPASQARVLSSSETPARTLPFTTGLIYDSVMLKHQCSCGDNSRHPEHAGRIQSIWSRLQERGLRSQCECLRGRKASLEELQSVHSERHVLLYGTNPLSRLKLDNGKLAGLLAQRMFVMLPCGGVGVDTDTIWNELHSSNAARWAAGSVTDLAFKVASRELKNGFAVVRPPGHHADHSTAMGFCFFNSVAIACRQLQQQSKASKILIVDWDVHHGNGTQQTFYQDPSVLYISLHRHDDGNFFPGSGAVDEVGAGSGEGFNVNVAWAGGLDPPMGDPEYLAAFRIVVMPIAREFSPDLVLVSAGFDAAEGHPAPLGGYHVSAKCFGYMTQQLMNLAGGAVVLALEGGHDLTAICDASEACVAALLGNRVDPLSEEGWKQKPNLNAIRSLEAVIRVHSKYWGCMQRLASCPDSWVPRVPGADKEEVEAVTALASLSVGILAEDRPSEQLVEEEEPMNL

SW-620 = assay: Antiproliferative activity against human SW620 cells assessed as reduction in cell viability measured after 24 to 48 hrs by MTT assay; format: functional, cell-based
DLD-1 = assay: Antiproliferative activity against human DLD1 cells assessed as reduction in cell viability measured after 24 to 48 hrs by MTT assay; format: functional, cell-based
[2] = target: Bromodomain-containing protein 4 (Homo sapiens, UniProt O60885); assay: Inhibition of GST-tagged BRD4 bromodomain (unknown origin) using biotinylated histone H4KAc peptide (1 to 21 residues) as substrate by HTRF assay

Histone deacetylase 2, sequence (Q92769 whole entry, the tested form may be a part): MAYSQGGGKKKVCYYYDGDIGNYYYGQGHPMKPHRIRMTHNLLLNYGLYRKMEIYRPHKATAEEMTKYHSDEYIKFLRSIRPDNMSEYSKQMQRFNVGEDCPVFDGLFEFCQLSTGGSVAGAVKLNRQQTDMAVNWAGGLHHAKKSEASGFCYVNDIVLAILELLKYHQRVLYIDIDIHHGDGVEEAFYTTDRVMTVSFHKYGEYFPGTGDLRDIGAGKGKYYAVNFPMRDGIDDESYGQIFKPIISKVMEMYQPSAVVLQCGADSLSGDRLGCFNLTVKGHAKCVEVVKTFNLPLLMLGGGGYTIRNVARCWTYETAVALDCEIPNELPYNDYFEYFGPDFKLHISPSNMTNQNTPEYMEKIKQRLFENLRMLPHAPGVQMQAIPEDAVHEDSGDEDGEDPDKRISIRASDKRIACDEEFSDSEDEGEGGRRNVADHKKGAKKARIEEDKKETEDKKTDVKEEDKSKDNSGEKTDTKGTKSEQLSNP

Structure (SMILES) | IC50 (HCT-116) [µM] | IC50 [1] [µM] | IC50 (Histone deacetylase 2) [µM] | IC50 (Histone deacetylase 7) [µM] | IC50 (SW-620) [µM] | IC50 (DLD-1) [µM] | IC50 [2] [µM]
Cc1cc(-c2nc3sc4c(c3c(=O)[nH]2)CCN(C)C4)cc(C)c1OCCOCc1ccc(/C=C/C(=O)NO)cc1 | 0.69 | 0.159 | 0.085 | > 10 | 3.85 | 3.04 | 0.98
Cc1cc(C)cc(-c2nc3sc4c(c3c(=O)[nH]2)CCN(C)C4)c1 | > 10 |  |  |  |  |  | > 10
COC(=O)CN1CCc2c(sc3nc(-c4c(C)noc4C)[nH]c(=O)c23)C1 | 16.2 |  |  |  |  |  | 6.68
CCN1CCc2c(sc3nc(-c4ccccc4)[nH]c(=O)c23)C1 | > 10 |  |  |  |  |  | > 10
O=c1[nH]c(-c2ccccc2)nc2sc3c(c12)CCC3 | > 10 |  |  |  |  |  | > 10
Cc1cc(-c2nc3sc4c(c3c(=O)[nH]2)CCN(CCCCCC(=O)NO)C4)cc(C)c1O | > 10 | 0.129 | 0.136 | > 10 | 15.8 | > 10 | > 10
Cc1cc(C)cc(-c2nc3sc4c(c3c(=O)[nH]2)CCC4)c1 | > 10 |  |  |  |  |  | > 10
Cc1noc(C)c1-c1nc2sc3c(c2c(=O)[nH]1)CCN(CCCCCC(=O)NO)C3 | 15.3 | 0.156 | 0.135 | > 10 | 8.47 | 16.8 | > 10
Cc1cc(C)cc(-c2nc3sc4c(c3c(=O)[nH]2)CCN(Cc2ccccc2)C4)c1 | > 10 |  |  |  |  |  | > 10
Cc1cc(-c2nc3sc4c(c3c(=O)[nH]2)CCN(C)C4)cc(C)c1OCc1ccc(C(=O)NO)cc1 | 1.07 | 0.188 | 0.105 | > 10 | 3.87 | 6.24 | 1.77
Cc1cc(-c2nc3sc4c(c3c(=O)[nH]2)CCN(Cc2ccccc2)C4)cc(C)c1O | > 10 |  |  |  |  |  | > 10
Cc1cc(-c2nc3sc4c(c3c(=O)[nH]2)CCCC4)cc(C)c1O | 5.41 |  |  |  |  |  | 1.81
CCN1CCc2c(sc3nc(-c4ccc(O)cc4)[nH]c(=O)c23)C1 | > 10 |  |  |  |  |  | > 10
O=c1[nH]c(-c2ccc(O)cc2)nc2sc3c(c12)CCCC3 | 9.73 |  |  |  |  |  | 5.77
Cc1cc(C)cc(-c2nc3sc4c(c3c(=O)[nH]2)CCCC4)c1 | > 10 |  |  |  |  |  | > 10
O=c1[nH]c(-c2ccc(O)cc2)nc2sc3c(c12)CCC3 | > 10 |  |  |  |  |  | 9.28
Cc1noc(C)c1-c1nc2sc3c(c2c(=O)[nH]1)CCN(CC(=O)Nc1ccccc1N)C3 | 28.3 | 0.391 | 0.352 | > 10 | 15.2 | 15.2 | > 10
Cc1cc(-c2nc3sc4c(c3c(=O)[nH]2)CCN(C)C4)cc(C)c1OCc1ccc(/C=C/C(=O)NO)cc1 | 0.92 | 0.202 | 0.097 | > 10 | 2.34 | 3.67 | 1.19

Structure (SMILES) | IC50 (HCT-116) [µM] | IC50 [1] [µM] | IC50 (Histone deacetylase 2) [µM] | IC50 (Histone deacetylase 7) [µM] | IC50 (SW-620) [µM] | IC50 (DLD-1) [µM] | IC50 [2] [µM]
CN1CCc2c(sc3nc(-c4ccc(O)cc4)[nH]c(=O)c23)C1 | 8.68 |  |  |  |  |  | 6.31
CN1CCc2c(sc3nc(-c4ccccc4)[nH]c(=O)c23)C1 | > 10 |  |  |  |  |  | > 10
Cc1cc(-c2nc3sc4c(c3c(=O)[nH]2)CCC4)cc(C)c1O | 4.85 |  |  |  |  |  | 2.64
Oc1nc(-c2ccccc2)nc2sc3c(c12)CCCC3 | > 10 |  |  |  |  |  | > 10
Cc1noc(C)c1-c1nc2sc3c(c2c(=O)[nH]1)CCN(CC(=O)NO)C3 | 22.8 | 0.455 | 0.489 | > 10 | 19.6 | 22.6 | > 10
Cc1cc(-c2nc3sc4c(c3c(=O)[nH]2)CCN(C)C4)cc(C)c1OCc1ccc(C(=O)Nc2ccccc2N)cc1 | 4.32 | > 10 | 0.14 | > 10 | 5.49 | > 10 | 2.55
Cc1noc(C)c1-c1nc2sc3c(c2c(=O)[nH]1)CCN(CCCCCC(=O)Nc1ccccc1N)C3 | 15.2 | 0.196 | 0.112 | > 10 | 11.1 | 14.8 | > 10
COC(=O)CCCN1CCc2c(sc3nc(-c4c(C)noc4C)[nH]c(=O)c23)C1 | 12.7 |  |  |  |  |  | 5.93
Cc1cc(-c2nc3sc4c(c3c(=O)[nH]2)CCN(C)C4)cc(C)c1OCc1cccc(C(=O)Nc2ccccc2N)c1 | 4.53 | > 10 | 0.86 | > 10 | > 10 | > 10 | 3.48
O=c1[nH]c(-c2ccccc2)nc2sc3c(c12)CCN(Cc1ccccc1)C3 | > 10 |  |  |  |  |  | > 10
Cc1cc(-c2nc3sc4c(c3c(=O)[nH]2)CCN(C)C4)cc(C)c1OCc1cccc(C(=O)NO)c1 | 5.49 | 0.78 | 0.251 | > 10 | 7.83 | 9.16 | 1.93
CCN1CCc2c(sc3nc(-c4cc(C)c(O)c(C)c4)[nH]c(=O)c23)C1 | 8.91 |  |  |  |  |  | 5.6
O=c1[nH]c(-c2ccc(O)cc2)nc2sc3c(c12)CCN(Cc1ccccc1)C3 | > 10 |  |  |  |  |  | > 10
CCN1CCc2c(sc3nc(-c4cc(C)cc(C)c4)[nH]c(=O)c23)C1 | > 10 |  |  |  |  |  | > 10
Cc1cc(-c2nc3sc4c(c3c(=O)[nH]2)CCN(C)C4)cc(C)c1OCCCCCC(=O)Nc1ccccc1N | 6.93 | > 10 | 0.17 | > 10 | 9.87 | > 10 | 2.19
Cc1cc(-c2nc3sc4c(c3c(=O)[nH]2)CCN(C)C4)cc(C)c1OCCCC(=O)NO | 2.08 | 0.25 | 0.16 | > 10 | 3.83 | 9.72 | 1.17
Cc1noc(C)c1-c1nc2sc3c(c2c(=O)[nH]1)CCN(C)C3 | 9.77 |  |  |  |  |  | 2.41
COC(=O)CCCCCN1CCc2c(sc3nc(-c4c(C)noc4C)[nH]c(=O)c23)C1 | 17 |  |  |  |  |  | 3.62
